{"source": "patent US4088778A", "about": "“Method for the treatment of hypertension” (priority 1975, dated 1978)", "key": {"[1]": {"experiment": "Subacute and chronic toxicities", "format": "in vivo", "conditions": "rats 100 to 1000 mg/Kg and beagles 100 mg/Kg daily, 3 or 6 months", "method": "(B) Subacute and Chronic Toxicities:\nTN and TA were separately administered to rats and beagles at daily doses of 100 to 1000 mg/Kg and 100 mg/Kg, respectively, continuously for 3 or 6 months."}, "Solubility": {"experiment": "Solubility", "format": "physicochemical"}, "[2]": {"experiment": "Hypotensive effect on rats of spontaneous hypertension, old SHR", "format": "in vivo, rats (9-month-old male SHR)", "conditions": "100 mg/kg TN orally once a day", "method": "(B) Hypotensive Effect on Rats of Spontaneous Hypertension:\n(§1) Experiments were conducted by using two classes of rats of spontaneous hypertension (hereinafter referred to as \"SHR\"; provided by Nippon Rat K.K.) differing in the age. In the first experiment, 9-month-old chronic […] SHR (hereinafter referred to as \"old SHR\"), and in the second experiment, 7-week-old SHR in which hypertension was advancing (hereinafter referred to as \"young SHR\") was used.\n(1) Experiment on Old SHR:\n40 of 9-month-old male SHR (having a body weight of 360 to 450 g) were divided into 10 groups, each consisting of 4 rats, and each group was placed in a cage. One of the rats in each cage was used as the non-administered control animal, and 20 mg/Kg of TN, 100 mg/Kg of TN and 88 mg/Kg of TA (equimolar to 100 mg/Kg of TN) were administered to the remaining 3 rats, respectively. Each hypotensive agent was orally administered once a day over a period of 4 weeks in the form of a suspension in gum arabic. Gum arabic solution was administered to the Control (non-administered) group. Simultaneously with initiation of the administration, drinking water was exchanged from service water to a 1% aqueous solution of sodium chloride."}, "[3]": {"experiment": "Clinical Test I, double blind: blood pressure", "format": "in vivo, human patients", "conditions": "for Maximum Blood Pressure in Hypertensives, Average Value ± S.D. / Maximum Blood Pressure, Average Value±S.D.: in mmHg (unit assumed)", "method": "94 patients of hypertension or arteriosclerosis having subjective symptoms were tested, and some of them suffered from complications such as ischemia heart disease, hypertensive heart disease and encephalomalacia.\nAs the active drug, there were employed hard capsules, each containing 100 mg of TN.\nTwo capsules were orally administered at one time, and the administration was conducted three times a day after eating. The period of the administration was principally 4 weeks or 6 weeks. During this period, the administration was performed continuously. Combined administration of drugs having the same function as that of TN (vitamin E drugs, nicotinic acid, its derivatives and peripheral vasolidators) was prohibited. Drugs which had been continuously administered since before the start of the administration of TN were similarly administered according to the disease case and symptom, and change of the prescription during the test was avoided.\nWith respect to data collected separately in the TN group and the P group, the significant difference was examined according to the statistical method."}, "[4]": {"experiment": "Experiment on young SHR (rats of spontaneous hypertension)", "format": "in vivo, rats (7-week-old female SHR)", "conditions": "for dead rats within 6 weeks from the start of the administration: control 5 among 11; for dead rats within 2 weeks from the start of administration: judged pneumonia, control 3", "method": "as §1\n(B) Experiment on Young SHR:\n72 of 7-week-old female SHR (having a body weight of 130 to 175 g) were divided into 9 cages, each consisting of 8 rats. Service water was given as drinking water to rats of two cages among these 9 cages, and these rats were compared with other rats which were given a 1% aqueous solution of sodium chloride as drinking water. In each of the […] cages of rats to which the sodium chloride solution was given, no agent was administered to 2 of 8 rats, 20 mg/Kg of TN was administered to another 2 rats, 100 mg/Kg of TN was administered to still another 2 rats, and 88 mg/Kg of TA was administered to the remaining 2 rats.\nAfter 2 weeks' feeding with the sodium chloride solution, administration was conducted once a day. Within 2 weeks from the start of administration,3 rats in the Control (non-administered) group, one rat in the 20 mg/Kg TN administered group, 3 rats in the 100 mg/Kg TN administered group, 3 rats in the 88 mg/Kg TA administered group and 4 rats in the service water given group were dead. In view of the body weight decrease and the snivel secretion and from the results of autopsy, it was judged that each of them died of pneumonia. The rats that died prior to initiation of the administration were not taken in account in evaluating the experimental results."}, "[5]": {"experiment": "Clinical Experiment II: side effects", "format": "in vivo, human patients", "method": "(§2) 75 patients of hypertension or arteriosclerosis having subjective symptoms were tested. Some of them suffered from complications such as ischemia heart disease and cerebral thrombosis. They are detailed in Table 11.\n(§3) Two capsules were administered at one time, and the administration was conducted 3 times per day after eating. The duration of the continuous administration was 4 weeks. Combined use of drugs having the same functions as those of TN (vitamin E drugs, nicotinic acid, its derivatives and peripheral vasolidators) and minor tranquilizers was prohibited."}, "[6]": {"experiment": "Clinical Experiment II: urine test", "format": "in vivo, human patients", "method": "as §2, §3"}, "[7]": {"experiment": "Clinical Experiment II: improvement of subjective symptoms", "format": "in vivo, human patients", "method": "as §2, §3\nChanges of various subjective symptoms of patients of hypertension were collectively examined, and at the time of termination of the administration, the degrees of improvements were judged and evaluated in both the TN administered group and the P group, to obtain results shown in Table 22."}, "Acute toxicity on rats": {"experiment": "Acute toxicity on rats", "format": "in vivo", "conditions": "mice and rats, maximum amount that can be administered", "from_the_text": "Toxicities of TN and TA will now be described."}, "[8]": {"experiment": "Clinical Experiment II: kidney function test", "format": "in vivo, human patients", "conditions": "in mg/dL (unit assumed)", "method": "as §2, §3\nThe kidney function test results are shown in Table 17, from which it will readily be understood that the variation of BUN values was within the normal region."}, "[9]": {"conditions": "2 weeks, N 34, TN 200 mg three times a day"}, "[10]": {"conditions": "4 weeks, N 38, TN 200 mg three times a day"}, "[11]": {"conditions": "6 weeks, N 20, TN 200 mg three times a day"}, "[12]": {"conditions": "before administration, N 43, all patients (Table 6)"}, "[13]": {"conditions": "conclusion of both clinical experiments"}}, "data": [{"smiles": "Cc1c(C)c2c(c(C)c1OC(=O)c1cccnc1)CCC(C)(CCCC(C)CCCC(C)CCCC(C)C)O2", "note": "(racemic) [TN, dl-α-tocopheryl nicotinate]", "values": [{"measurement": "deaths", "setting": "[1]", "result": "no deaths"}, {"measurement": "haematological, haemetobiological and histological surveys", "setting": "[1]", "result": "no manifestation of the toxicity was observed"}, {"measurement": "inhibition of the body weight", "setting": "[1]", "result": "inhibition of the body weight was not observed"}, {"measurement": "solubility in organic solvents", "setting": "Solubility", "result": "easily soluble in acetone, benzene, chloroform, ether and ethanol"}, {"measurement": "solubility in water", "setting": "Solubility", "result": "hardly soluble in water"}, {"measurement": "difference of the blood pressure between control and administered group", "setting": "[2]; 3rd week", "result": "about 30 mm Hg"}, {"measurement": "lowering of blood pressure on the average", "setting": "[2]; after 1 week", "result": 15, "unit": "mm Hg"}, {"measurement": "maximum blood pressure in patients of hypertension", "setting": "[3]; 2, 4 or 6 weeks' administration", "result": "lowered by 2, 4 or 6 weeks' administration below the maximum blood pressure before the start of the administration"}, {"measurement": "Maximum Blood Pressure in Hypertensives, Average Value ± S.D.", "setting": "[3]; 2 weeks, N 28, P < 0.05 vs before", "result": "143.8 ± 21.0"}, {"measurement": "Minimum Blood Pressure, Average Value±S.D.", "setting": "[3]; [9]", "result": "82.4±11.4"}, {"measurement": "Maximum Blood Pressure, Average Value±S.D.", "setting": "[3]; [9]", "result": "139.7±21.1"}, {"measurement": "Maximum Blood Pressure in Hypertensives, Average Value ± S.D.", "setting": "[3]; 4 weeks, N 29, P < 0.02 vs before", "result": "143.1 ± 21.1"}, {"measurement": "Minimum Blood Pressure, Average Value±S.D.", "setting": "[3]; [10]", "result": "80.6±10.3"}, {"measurement": "Maximum Blood Pressure, Average Value±S.D.", "setting": "[3]; [10]", "result": "140.0±20.3"}, {"measurement": "Maximum Blood Pressure in Hypertensives, Average Value ± S.D.", "setting": "[3]; 6 weeks, N 13, P < 0.05 vs before", "result": "139.2 ± 16.8"}, {"measurement": "Minimum Blood Pressure, Average Value±S.D.", "setting": "[3]; [11]", "result": "79.1±7.0"}, {"measurement": "Maximum Blood Pressure, Average Value±S.D.", "setting": "[3]; [11]", "result": "138.1±15.2"}, {"measurement": "patients in whom administration was interrupted", "setting": "[3]; TN 200 mg three times a day, 4 or 6 weeks, P group 3 patients", "result": 2, "unit": "patients"}, {"measurement": "Minimum Blood Pressure, Average Value±S.D.", "setting": "[3]; [12]", "result": "84.4±13.7"}, {"measurement": "Maximum Blood Pressure, Average Value±S.D.", "setting": "[3]; [12]", "result": "147.6±23.6"}, {"measurement": "Maximum Blood Pressure in Hypertensives, Average Value ± S.D.", "setting": "[3]; before administration, same 13 patients as 6 weeks", "result": "151.2 ± 28.9"}, {"measurement": "Maximum Blood Pressure in Hypertensives, Average Value ± S.D.", "setting": "[3]; before administration, same 28 patients as 2 weeks", "result": "151.0 ± 22.1"}, {"measurement": "Maximum Blood Pressure in Hypertensives, Average Value ± S.D.", "setting": "[3]; before administration, same 29 patients as 4 weeks", "result": "154.6 ± 24.8"}, {"measurement": "dead rats within 6 weeks from the start of the administration", "setting": "[4]; 20 mg/kg TN, among 13 rats", "result": 3, "unit": "rats"}, {"measurement": "dead rats within 2 weeks from the start of administration", "setting": "[4]; 20 mg/kg TN", "result": "one"}, {"measurement": "dead rats within 6 weeks from the start of the administration", "setting": "[4]; 100 mg/kg TN, among 11 rats", "result": 4, "unit": "rats"}, {"measurement": "dead rats within 2 weeks from the start of administration", "setting": "[4]; 100 mg/kg TN", "result": 3, "unit": "rats"}, {"measurement": "side effect: constipation", "setting": "[5]; among 41 patients", "result": "another patient complained of constipation"}, {"measurement": "side effect: light lack of appetite", "setting": "[5]; among 41 patients", "result": "one"}, {"measurement": "side effects in other patients", "setting": "[5]; among 41 patients", "result": "no side effect was observed"}, {"measurement": "side effects versus conventional hypotensive agents", "setting": "[5]; [13]", "result": "much more reduced in TN than in conventional hypotensive agents"}, {"measurement": "other various blood tests and the like: undesirable side effects", "setting": "[5]; human, in vivo", "result": "None of results of other various blood tests and the like were suggestive of undesirable, side effects"}, {"measurement": "urine specific Gravity, Average Value", "setting": "[6]; after administration, N 25, S.D. ±5.34", "result": 1017.92}, {"measurement": "urine specific Gravity, Average Value", "setting": "[6]; before administration, N 25, S.D. ±5.56", "result": 1017.56}, {"measurement": "Improvement of subjective symptoms: Improvement Ratio", "setting": "[7]; P group 52.94, P < 0.05", "result": 86.36, "unit": "%"}, {"measurement": "degree of improvement of subjective symptoms versus P group", "setting": "[7]; [13]", "result": "higher than in the P group"}, {"measurement": "improving rush of blood, dizzy feeling, stiffness in the shoulders, stiffness in the nape, heaviness in the head and insomnia", "setting": "[7]; [13]", "result": "especially good effects"}, {"measurement": "degree of improvement of subjective symptoms versus P group", "setting": "[7]; level of significance lower than 5%", "result": "excellent over that in the P group at a level of significance lower than 5%"}, {"measurement": "Improvement of subjective symptoms: Not Changed", "setting": "[7]; number of patients, total 22", "result": 3}, {"measurement": "Improvement of subjective symptoms: Partial Improvement", "setting": "[7]; number of patients, total 22", "result": 6}, {"measurement": "Improvement of subjective symptoms: Remarkable Improvement", "setting": "[7]; number of patients, total 22", "result": 7}, {"measurement": "Improvement of subjective symptoms: Slight Improvement", "setting": "[7]; number of patients, total 22", "result": 6}, {"measurement": "Improvement of subjective symptoms: Worsened", "setting": "[7]; number of patients, total 22", "result": 0}, {"measurement": "animals killed in acute toxicity test", "setting": "Acute toxicity on rats", "result": "no test animal was killed"}, {"measurement": "BUN, Average Value", "setting": "[8]; after administration, N 27, S.D. ±8.48", "result": 14.99}, {"measurement": "BUN, Average Value", "setting": "[8]; before administration, N 31, S.D. ±6.23", "result": 14.74}]}]}
